One compound from US12685779B2, “Complex” (UNITED IMMUNITY, CO., LTD., priority 2023, dated 2026) can be followed below.

One data set relates to reticulocytes. The data set can be described thus: Blood test in mouse allogeneic tumor transplantation model. The format is in vivo. Particulars: 84.5 μg i.v. on days 7, 9, 11; blood 1 day after final administration. The protocol:
10^6 cells of the mouse colorectal cancer cell line MC38 were administered intradermally into the dorsal skin of mice (C57BL/6JJmsSlc, female). After 7 days, 9 days, and 11 days, the Telratolimod solution prepared in Test Example 4 and the CHP:Telratolimod solution prepared in Example 2 were each administered (amount of Telratolimod: 84.5 μg) via tail vein injection to 5 mice per group. One day after the final administration, blood was collected, and changes in red blood cell and reticulocyte counts were measured. Significance tests were performed using one-way ANOVA (*P<0.05, **P<0.01, ***P<0.001, ****P<0.0001).

For another data set, the system named is cytokines in serum. The data set can be described thus: Evaluation of cytokine release in mouse allogeneic tumor transplantation model. The format is in vivo, mice (C57BL/6JJmsSlc, female). Particulars: 84.5 μg i.v., blood after 2 hours, MC38-bearing mice. How it is done:
The allograft model mice used were 10 days after 10^6 cells of the mouse colorectal cancer cell line MC38 were administered intradermally into the dorsal skin of mice (C57BL/6JJmsSlc, female). The Telratolimod solution prepared in Test Example 4 and the CHP:Telratolimod solution prepared in Example 2 were each administered (amount of Telratolimod: 84.5 μg) via tail vein injection to 5 mice per group, and blood was collected after 2 hours. The serum was obtained by centrifugation, and changes in the amount of cytokines were measured using LEGENDplex Mouse Inflammation Panel (BioLegend). Significance tests were performed using one-way ANOVA (*P<0.05, **P<0.01, ***P<0.001, ****P<0.0001).

Data set [1] concerns human peripheral blood-derived M2-like macrophages (phagocytosis of HeLa cells). The data set can be described thus: Cancer cell phagocytosis test of human peripheral blood-derived M2-like macrophages. The format is cell-based. Particulars: 10 μM in terms of Telratolimod, 1 day, flow cytometry. How it is done:
HeLa cells were labeled with fluorescent label 1 (CellTracker Green CMTPX Dye, ThermoFisher) for 30 minutes, then washed twice with PBS(−), and cultured overnight in medium (RPMI supplemented with 10% fetal bovine serum) containing 2.5 μM doxorubicin.
Telratolimod or CHP:Telratolimod adjusted to a final concentration of 10 μM in terms of Telratolimod was added to the basal medium, and the M2-like macrophages prepared in Test Example 11 were incubated for 1 day. After labeling with fluorescent labeling agent 2 (CellTracker Red CMTPX Dye, ThermoFisher) for 30 minutes, the cells were washed twice with PBS(−). The HeLa cells were added at a half ratio to the M2-like macrophages and co-cultured overnight. The cells were then harvested, and the number of cells co-positive for fluorescent labels 1 and 2 was determined by flow cytometry. The control was supplemented with only medium.
A general note: A flow cytometer gives signals particle by particle.

Data set [2] relates to mouse colon cancer cell line MC38. The data set can be described thus: Antitumor evaluation in mouse allogeneic tumor transplantation model (1). The format is in vivo, mice (C57BL/6JJmsSlc, female). Conditions: MC38, 84.5 μg Telratolimod i.v. on days 7, 9, 11, 14, 16, 18; day 19. The protocol:
A mouse allogeneic tumor transplantation model was prepared by intradermally administering 10^6 cells of the mouse colon cancer cell line MC38 into the dorsal skin of mice (C57BL/6JJmsSlc, female). Mice on day 7 after cell administration were used. 84.5 μg of CHP:Telratolimod prepared in Example 2 or Telratolimod dissolved in a solubilizing solvent (17.1% polyethylene glycol 300, 4.3% Tween 80, and 8.6% polyoxyethylene hydrogenated castor oil) was administered via tail vein injection, and changes in the concentration of Telratolimod in the blood were measured. Blood was collected from 5 mice per group. After each test drug was administered via tail vein injection, 80 μL of isopropyl alcohol was added to 20 μL of serum collected after 1 minute, 30 minutes, 1 hour, 2 hours, and 6 hours, and bead crushing was performed for 1 minute using a 5 mm diameter stainless steel ball. […] The collected supernatant was analyzed by LS-MS/MS to measure the Telratolimod concentration. […]
An MC38 mouse allogeneic tumor transplantation model was prepared in the same manner as in Test Example 4. […] Tumor sizes were measured on days 7, 9, 11, 14, 16, 18, and 19. The tumor volume was calculated by (long axis×short axis×short axis)/2. […]

For data set [3], the system named is mouse colorectal cancer cell line CT26. The data set can be described thus: Antitumor evaluation in mouse allogeneic tumor transplantation model (2). The format is in vivo, mice (BALB/cCrSlc, female). Conditions: Telratolimod 42 μg i.v. days 7, 9, 11, 14, 16, 18, anti-PD-1 antibody 100 μg i.p. days 7, 11, 14, 18. The protocol: A mouse allogeneic tumor transplantation model was prepared by intradermally administering 10^6 cells of the mouse colorectal cancer cell line CT26 into the dorsal skin of mice (BALB/cCrSlc, female). On days 7, 9, 11, 14, 16, and 18 after cell transplantation, the CHP:Telratolimod solution prepared in Example 2 and the Telratolimod solution prepared in Test Example 4 were each administered via tail vein injection, and on days 7, 11, 14, and 18 after cell transplantation, an anti-PD-1 antibody (RMP1-14, Bio X Cell) solution was administered intraperitoneally, to 5 mice per group (amount of Telratolimod: 42 μg, amount of anti-PD-1 antibody: 100 μg). One group received a combination of the CHP:Telratolimod solution and the anti-PD-1 antibody. Tumor sizes were measured on days 7, 9, 11, 14, 16, 18, and 21. The tumor volume was calculated by (long axis×short axis×short axis)/2. The negative control is an untreated group.

Data set [4] is described as follows: Blood concentration changes in mouse allogeneic tumor transplantation model. The format is in vivo, mice (C57BL/6JJmsSlc, female). Particulars: 84.5 μg via tail vein injection, MC38-bearing mice, serum 1 min to 6 hours. The protocol:
A mouse allogeneic tumor transplantation model was prepared by intradermally administering 10^6 cells of the mouse colon cancer cell line MC38 into the dorsal skin of mice (C57BL/6JJmsSlc, female). Mice on day 7 after cell administration were used. 84.5 μg of CHP:Telratolimod prepared in Example 2 or Telratolimod dissolved in a solubilizing solvent (17.1% polyethylene glycol 300, 4.3% Tween 80, and 8.6% polyoxyethylene hydrogenated castor oil) was administered via tail vein injection, and changes in the concentration of Telratolimod in the blood were measured. Blood was collected from 5 mice per group. After each test drug was administered via tail vein injection, 80 μL of isopropyl alcohol was added to 20 μL of serum collected after 1 minute, 30 minutes, 1 hour, 2 hours, and 6 hours, and bead crushing was performed for 1 minute using a 5 mm diameter stainless steel ball. Further, 400 μL of an 80% isopropyl alcohol and 20% acetonitrile solution was added and mixed, followed by sonication for 3 minutes, and centrifugation at 12000 g for 5 minutes to collect the supernatant. The collected supernatant was analyzed by LS-MS/MS to measure the Telratolimod concentration. […]

In data set [5] the test system is macrophages infiltrating into the tumors (MC38). The data set can be described thus: Evaluation of TAM polarization in mouse allogeneic tumor transplantation model. Particulars: MC38, 84.5 μg i.v. on days 7, 9, 11; tumors 1 day after final administration; flow cytometry. The format is in vivo, mice. How it is done:
An MC38 mouse allogeneic tumor transplantation model was prepared in the same manner as in Test Example 6, and on days 7, 9, and 11 after cell transplantation, the CHP:Telratolimod solution prepared in Example 2 and the Telratolimod solution prepared in Test Example 4 were each administered via tail vein injection to 5 mice per group (amount of Telratolimod: 84.5 μg). One day after the final administration, the tumors were excised, and macrophages infiltrating into the tumors were measured by flow cytometry. Significance tests were performed using one-way ANOVA (*P<0.05, **P<0.01, ***P<0.001, ****P<0.0001).

The subject of data set [6] is human peripheral blood-derived TAMs (phagocytosis of HeLa cells). The data set can be described thus: Cancer cell phagocytosis test of human peripheral blood-derived TAMs. The format is cell-based. Conditions: 10 μM in terms of Telratolimod, 2 days, doxorubicin-treated HeLa cells, flow cytometry. The protocol: HeLa cells were labeled with fluorescent label 1 (CellTracker Green CMTPX Dye, ThermoFisher) for 30 minutes, then washed twice with PBS(−), and cultured overnight in medium (RPMI supplemented with 10% fetal bovine serum) containing 1.25 μM doxorubicin.
TAMs were prepared in the same manner as in Test Example 1, and Telratolimod or CHP:Telratolimod adjusted to a final concentration of 10 μM in terms of Telratolimod was added to the basal medium, followed by incubation for 2 days. After labeling with fluorescent labeling agent 2 (CellTracker Red CMTPX Dye, ThermoFisher) for 30 minutes, the cells were washed twice with PBS(−). The doxorubicin-treated HeLa cells were added at a half ratio to the TAMs and co-cultured overnight. The cells were then harvested, and the number of cells co-positive for fluorescent labels 1 and 2 was determined by flow cytometry. The control was supplemented with only medium.

Data set [7] has as its system human peripheral blood-derived TAMs. The data set can be described thus: Polarization test of human peripheral blood-derived TAMs (TNF-α ELISA). The format is cell-based. Particulars: 30 μM in terms of Telratolimod, 2 days incubation, culture supernatant. The protocol: (§1) Human peripheral blood-derived CD14-positive monocytes that had been cryopreserved in advance were awake and seeded in a 24-well tissue culture plate at 2×10^5 cells/well in 500 μL of basal medium (RPMI, 10% fetal bovine serum, 50 ng/mL M-CSF) and cultured for 3 days in a 37° C., 5% CO2 incubator, after which 500 μL of basal medium was further added, and the cells were cultured for 3 days. The medium was then replaced with 500 μL of TAM differentiation induction medium prepared by adding 10% fetal bovine serum, 50 ng/mL IL-4, 50 ng/mL IL-6, 50 ng/mL IL-10, 50 ng/mL IL-13, and 5% human AB type male donor defibrinated serum (Veritas) to a separately prepared culture supernatant of human cancer cells, and the cells were cultured for 2 days.
A Telratolimod solution or CHP:Telratolimod solution adjusted to a final concentration of 30 μM in terms of Telratolimod was added to the TAM prepared in Test Example 1, followed by incubation for 2 days, and TNF-α in the culture supernatant was measured by ELISA (BioLegend). The control was supplemented with only medium.
On the technique in general: In an ELISA, binding on a coated surface is turned into a signal by an enzyme label.

Data set [8] in a line: Examination of encapsulation of TLR7 and TLR8 agonists in CHP nanogel (Example 1). The format is physicochemical. Particulars: CHP in 6 M urea in PBS(−), stepwise dialysis against PBS(−). How it is done: Nine TLR7 and TLR8 agonists (Telratolimod, Motolimod, Vesatolimod, Resiquimod, Imiquimod, CL075, CU-CPT17e, CU-CPT9a, and PF-4878691) were examined for whether they could be encapsulated in CHP nanogel. CHP was dissolved in a 6 M urea solution in PBS(−), and a compound solution was added thereto. Then, stepwise dialysis was performed against PBS(−).

Data set [9] deals with human peripheral blood-derived M2-like macrophages. The experiment in a line: Polarization test of human peripheral blood-derived M2-like macrophages (cytokine bead assay). Conditions: 3 μM, 1 day, culture supernatant. The format is cell-based. How it is done: as §1, with “M2-like macrophage” for “TAM”, “adding” for “adding 10% fetal bovine serum,”, “IL-10, and” for “IL-10,”, “IL-13” for “IL-13, and 5% human AB type male donor defibrinated serum (Veritas)”, “the basal medium,” for “a separately prepared culture supernatant of human cancer cells,”
A Telratolimod solution or CHP:Telratolimod solution adjusted to a final concentration of 3 μM in terms of Telratolimod was added to the M2-like macrophages prepared in Test Example 11, followed by incubation for 1 day, and TNF-α, IL-1β, IL-6, IL-12p40 (p40 subunit of IL-12), IL-23, and CXCL10 in the culture supernatant were measured using a flow cytometry bead assay kit (LEGENDplex™, BioLegend). The control was supplemented with only medium.

For `CCCCCCCCCCCCCCCCCC(=O)NCCCCOn1c(CCCC)nc2c(N)nc3ccccc3c21` [Telratolimod], the “change in reticulocytes (bone marrow toxicity indicator)” value in the data set on reticulocytes is “significant decrease”. Also, in the data set with cytokines in serum, the IFN-β in serum result is on record as “rapid increases”, the IL-6 in serum entry is reported as “rapid increases” and the MCP-1 in serum result is listed as “rapid increases”. In data set [1], this compound registered a Phagocytosis rate of 9.7%. For the same compound, the “growth inhibition compared to the solvent control” value in data set [2] was 49%. Besides, the “antitumor effect (tumor volume)” value in data set [3] is recorded as “limited”. Moreover, the “blood concentration of Telratolimod over time” value in data set [4] was “rapidly decreased within 30 minutes after administration”. In addition, in data set [5], the “expression of ARG1 (M2-like macrophage marker)” value is given as “tended to decrease” and the “expression of iNOS (M1-like macrophage marker)” value is listed as “significantly increased”. The compound further came in with a Phagocytosis rate in data set [6] of 5.5%. In [7], the TNF-α was determined as 700 pg/mL. Moreover, in data set [8], the “whether the compound could be encapsulated in CHP nanogel and formed into a solution” value is “could be stably encapsulated in the CHP nanogel and formed into a solution”. In addition, in [9], the CXCL10 was 140 ± 20 pg/mL, the IL-1β was found to be 2.3 ± 0.64 pg/mL, the IL-6 came to 3100 ± 380 pg/mL and the IL-12p40 is 59 ± 22 pg/mL. In addition, in [9], the IL-23 worked out at 1.4 ± 0.35 pg/mL and the TNF-α is 40 ± 7.3 pg/mL.
